Assay results: patent publication US20240408216A1, “PROTEIN INHIBITOR OR DEGRADING AGENT, PHARMACEUTICAL COMPOSITION CONTAINING SAME AND PHARMACEUTICAL USE” (JING MEDICINE TECHNOLOGY (SHANGHAI) LTD., priority 2021, published 2024)
Like-named read-outs stand apart in the source and are kept apart here.

Key:
A431 = test: Cell proliferation IC50 assay (Cell Titer GLO), A431 cells; type: cell-based; conditions: Homo sapiens, A-431, A431, 72 h, read-out: A431 IC50
Outline: (§1)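 Cells plated at 2000-4000 per well, next day given serially diluted compound, then grown 72 h at 37 °C, 5% CO2. Viability by CellTiter-Glo luminescence versus DMSO control; IC50 from growth-inhibition curves.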

[1] = tested on: BaF3 (EGFR L858R/T790M/C797S); test: Cell proliferation IC50 assay (Cell Titer GLO), BaF3 LTC cells; type: cell-based; conditions: Mus musculus, Ba/F3 EGFR
Outline: as §1

BaF3 (EGFR L858R/C797S) = BaF3 (EGFR L858R/C797S) (Homo sapiens, UniProt P00533, C797S/L858R, cells depend on it); test: Cell proliferation IC50 assay (Cell Titer GLO), BaF3 LC cells; type: cell-based, mouse; conditions: Table 7, 72 h
BaF3 (EGFR L858R/C797S), sequence (P00533 whole entry C797S/L858R): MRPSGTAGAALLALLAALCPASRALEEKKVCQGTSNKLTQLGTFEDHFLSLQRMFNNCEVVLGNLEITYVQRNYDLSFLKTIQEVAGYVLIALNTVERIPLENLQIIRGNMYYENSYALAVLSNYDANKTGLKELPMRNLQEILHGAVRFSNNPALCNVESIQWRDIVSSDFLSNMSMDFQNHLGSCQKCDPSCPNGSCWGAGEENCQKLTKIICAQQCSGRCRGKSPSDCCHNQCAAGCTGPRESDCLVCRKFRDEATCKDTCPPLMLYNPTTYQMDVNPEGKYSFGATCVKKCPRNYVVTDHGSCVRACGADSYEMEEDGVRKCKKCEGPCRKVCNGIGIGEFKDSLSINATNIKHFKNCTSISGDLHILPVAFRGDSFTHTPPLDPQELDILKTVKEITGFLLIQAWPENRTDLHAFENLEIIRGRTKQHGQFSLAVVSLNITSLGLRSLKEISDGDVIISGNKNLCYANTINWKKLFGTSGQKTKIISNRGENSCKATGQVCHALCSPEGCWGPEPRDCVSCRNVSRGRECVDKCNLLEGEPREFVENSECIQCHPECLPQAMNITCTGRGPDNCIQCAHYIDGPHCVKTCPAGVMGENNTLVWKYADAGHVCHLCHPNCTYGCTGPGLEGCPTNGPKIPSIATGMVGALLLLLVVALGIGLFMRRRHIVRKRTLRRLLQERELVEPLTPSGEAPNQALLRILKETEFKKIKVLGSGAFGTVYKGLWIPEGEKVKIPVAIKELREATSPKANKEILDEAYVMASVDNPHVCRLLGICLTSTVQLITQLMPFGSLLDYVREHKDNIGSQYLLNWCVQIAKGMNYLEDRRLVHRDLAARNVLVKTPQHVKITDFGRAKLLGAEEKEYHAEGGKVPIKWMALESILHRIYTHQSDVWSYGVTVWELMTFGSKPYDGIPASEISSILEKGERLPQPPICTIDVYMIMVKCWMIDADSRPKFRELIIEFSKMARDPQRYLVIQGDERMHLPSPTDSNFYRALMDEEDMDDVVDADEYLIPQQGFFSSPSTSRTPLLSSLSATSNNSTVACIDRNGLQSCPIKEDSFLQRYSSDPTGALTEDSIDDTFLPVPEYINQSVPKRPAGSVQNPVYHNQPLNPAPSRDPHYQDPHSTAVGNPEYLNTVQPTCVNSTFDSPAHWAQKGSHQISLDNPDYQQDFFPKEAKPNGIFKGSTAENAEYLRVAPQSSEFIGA
Method: (§2) IC50 of compounds in the present invention was determined by Cell Titer GLO reagent from Promega. The procedures are as follows:
(§3) Tumor cells were cultured in specified medium in an incubator at 37° C. and 5% CO2. The cells were passaged periodically. Cells at the logarithmic growth phase were collected for plating at a density of 2000-4000 cells/well. The next day, the compounds of the present invention were serially diluted and added to the cells, with DMSO being the negative control and the culture media without cells being the blank control. The plate was incubated in the incubator for 72 h. The cell viability assay was performed by adding the detection reagents to the cell culture media according to Cell Titer GLO reagent instructions and detecting luminescent signals on an EnVision microplate reader (PerkinElmer).
(§4) Inhibition of cell growth by the compounds of the present invention was plotted by Prism Graphpad software for statistically calculating the IC50 of the compound of the present invention.

BaF3 (EGFR Del19) = BaF3 (EGFR Del19) (Homo sapiens, UniProt P00533, cells depend on it, form not given); test: Cell proliferation IC50 assay (Cell Titer GLO), BaF3 D cells; type: cell-based, mouse; conditions: Table 7, 72 h
Method: as §2, §3, §4

LT = test: Cell proliferation IC50 assay (Cell Titer GLO), LT cells; type: cell-based; conditions: Mus musculus; Table 7; LT cells (BaF3 with EGFR mutant), 72 h
Method: as §2, §3, §4

DT = test: Cell proliferation IC50 assay (Cell Titer GLO), DT cells; type: cell-based; conditions: Mus musculus; Table 7; DT cells (BaF3 with EGFR mutant), 72 h
Method: as §2, §3, §4

[2] = tested on: BaF3 (EGFR Del19/T790M/C797S); test: Cell proliferation IC50 assay (Cell Titer GLO), BaF3 DTC cells; type: cell-based; conditions: Mus musculus, Ba/F3 EGFR-Del19/T790M/C797S
Outline: as §1

BaF3 (EGFR Del19/C797S) = molecular target: T1, BaF3 (EGFR Del19/C797S) (Homo sapiens, UniProt P00533, C797S, cells depend on it, form not given); test: Cell proliferation IC50 assay (Cell Titer GLO), BaF3 DC cells; type: cell-based, mouse; conditions: Table 7, 72 h
T1 construct: BaF3 (EGFR Del19/C797S)|DC|RPMI1640 + 10% FBS
T1 sequence (P00533 with tags, fused parts or gaps DEL746-750/C797S, form open): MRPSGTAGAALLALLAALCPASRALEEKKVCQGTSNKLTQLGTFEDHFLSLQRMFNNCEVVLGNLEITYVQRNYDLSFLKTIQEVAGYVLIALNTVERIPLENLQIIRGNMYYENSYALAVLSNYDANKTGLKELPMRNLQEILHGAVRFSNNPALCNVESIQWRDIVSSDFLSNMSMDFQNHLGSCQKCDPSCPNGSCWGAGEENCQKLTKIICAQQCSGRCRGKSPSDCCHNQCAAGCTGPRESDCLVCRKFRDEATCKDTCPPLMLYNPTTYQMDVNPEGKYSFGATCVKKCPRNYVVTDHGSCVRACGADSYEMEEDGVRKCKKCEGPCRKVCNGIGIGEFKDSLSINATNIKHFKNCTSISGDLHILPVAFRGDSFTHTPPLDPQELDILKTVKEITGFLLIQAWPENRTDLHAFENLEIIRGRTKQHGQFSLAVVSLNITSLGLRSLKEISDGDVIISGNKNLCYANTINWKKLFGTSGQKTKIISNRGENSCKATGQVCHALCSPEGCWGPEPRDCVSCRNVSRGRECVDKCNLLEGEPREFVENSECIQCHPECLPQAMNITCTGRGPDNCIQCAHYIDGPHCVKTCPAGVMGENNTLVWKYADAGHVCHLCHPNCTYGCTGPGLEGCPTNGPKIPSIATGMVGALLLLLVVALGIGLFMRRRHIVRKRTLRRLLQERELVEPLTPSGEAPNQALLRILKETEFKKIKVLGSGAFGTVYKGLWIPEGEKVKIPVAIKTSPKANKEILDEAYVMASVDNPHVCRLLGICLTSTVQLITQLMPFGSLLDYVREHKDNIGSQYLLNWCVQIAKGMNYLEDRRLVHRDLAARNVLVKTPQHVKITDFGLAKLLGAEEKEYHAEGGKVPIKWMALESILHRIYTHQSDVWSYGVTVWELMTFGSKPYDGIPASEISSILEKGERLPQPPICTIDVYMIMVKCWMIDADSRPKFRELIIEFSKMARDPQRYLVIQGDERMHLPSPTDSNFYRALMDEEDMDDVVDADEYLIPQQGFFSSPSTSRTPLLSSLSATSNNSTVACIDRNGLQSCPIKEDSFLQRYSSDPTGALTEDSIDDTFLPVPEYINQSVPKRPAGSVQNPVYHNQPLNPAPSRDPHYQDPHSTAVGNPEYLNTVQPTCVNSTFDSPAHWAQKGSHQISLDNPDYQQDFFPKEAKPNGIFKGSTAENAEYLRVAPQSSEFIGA
Outline: as §1

BaF3 (EGFR WT) = test: Cell proliferation IC50 assay (Cell Titer GLO), BaF3 WT cells; type: cell-based; conditions: Mus musculus, Ba/F3 EGFR, 72 h
Outline: as §1

BaF3 (EGFR L858R) = BaF3 (EGFR L858R) (Homo sapiens, UniProt P00533, L858R, cells depend on it); test: Cell proliferation IC50 assay (Cell Titer GLO), BaF3 L cells; type: cell-based, mouse; conditions: Table 7, 72 h
BaF3 (EGFR L858R), sequence (P00533 whole entry L858R): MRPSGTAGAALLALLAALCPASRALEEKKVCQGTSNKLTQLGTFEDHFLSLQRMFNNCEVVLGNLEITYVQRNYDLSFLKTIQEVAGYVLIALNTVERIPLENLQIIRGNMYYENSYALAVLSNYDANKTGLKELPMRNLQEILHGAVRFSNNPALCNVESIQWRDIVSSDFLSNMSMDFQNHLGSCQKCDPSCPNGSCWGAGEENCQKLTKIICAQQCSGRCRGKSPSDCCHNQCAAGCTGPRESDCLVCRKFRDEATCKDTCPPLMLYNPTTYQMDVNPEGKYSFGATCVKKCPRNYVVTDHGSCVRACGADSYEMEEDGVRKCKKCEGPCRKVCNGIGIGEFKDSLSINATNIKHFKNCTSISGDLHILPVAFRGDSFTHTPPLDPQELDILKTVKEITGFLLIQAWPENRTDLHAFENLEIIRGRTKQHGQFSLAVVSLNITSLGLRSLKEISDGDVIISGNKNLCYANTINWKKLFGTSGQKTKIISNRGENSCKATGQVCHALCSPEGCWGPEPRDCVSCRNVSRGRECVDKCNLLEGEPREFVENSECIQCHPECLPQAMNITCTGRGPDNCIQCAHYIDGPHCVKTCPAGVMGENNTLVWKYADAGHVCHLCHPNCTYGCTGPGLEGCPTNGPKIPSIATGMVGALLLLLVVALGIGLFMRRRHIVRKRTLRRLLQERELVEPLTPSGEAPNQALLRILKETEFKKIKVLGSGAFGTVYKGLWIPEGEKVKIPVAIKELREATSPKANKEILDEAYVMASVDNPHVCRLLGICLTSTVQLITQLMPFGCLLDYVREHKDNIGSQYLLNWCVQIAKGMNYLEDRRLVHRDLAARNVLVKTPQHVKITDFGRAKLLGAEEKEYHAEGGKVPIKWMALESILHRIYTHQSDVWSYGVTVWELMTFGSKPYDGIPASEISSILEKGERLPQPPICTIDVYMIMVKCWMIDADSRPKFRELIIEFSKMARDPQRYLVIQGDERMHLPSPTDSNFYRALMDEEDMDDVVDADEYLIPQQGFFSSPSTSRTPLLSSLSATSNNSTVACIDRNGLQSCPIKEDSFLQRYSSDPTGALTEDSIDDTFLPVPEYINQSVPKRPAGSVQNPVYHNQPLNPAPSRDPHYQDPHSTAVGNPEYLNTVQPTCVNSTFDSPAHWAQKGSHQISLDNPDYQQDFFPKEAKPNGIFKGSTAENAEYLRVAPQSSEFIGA
Method: as §2, §3, §4

BaF3 patent = test: Cell proliferation IC50 assay (Cell Titer GLO), BaF3 parental cells; type: cell-based; conditions: Mus musculus, Table 5, 10 ng/ml mIL3, 72 h
Method: as §2, §3, §4

human EGFR-DC = test: EGFR protein abundance assay (Western blotting), EGFR-DC; type: cell-based; conditions: Ba/F3 cells expressing human EGFR-DC, 24 h, Western blot
Method: (§5) Mouse Ba/F3 cells stably expressing human EGFR-DTC, EGFR-LTC, or EGFR-DC were transferred to Petri dishes with RPMI-1640 medium (Gibco, Product No. 11875093) containing 10% fetal bovine serum (FBS, Biological Industries, Product No. 04-001-1A) and 0.1% penicillin/streptomycin (P/S) and incubated in an aseptic incubator at 37° C., 95% relative humidity, and 5% CO2. Cells at the logarithmic growth phase were taken and seeded at a density of 50000 cells/well in 12-well plates (Corning, Product No. 3513) containing 1 mL of medium per well. After 24 h, the compounds disclosed herein with different concentrations were added to the wells at a final DMSO concentration of 0.1%. After 24 h, cells were lysed in SDS lysis buffer (1.45 g of SDS, 0.2 g of Tris base, 6 mL of glycerol, 20 mg of bromophenol blue, 310 mg DTT; brought to 40 mL with d2H2O), and the EGFR levels were detected and analyzed by Western Blotting (immunoblotting) using standard molecular biological techniques. Cell lysates were boiled at 95° C. for 8 min, mixed and centrifuged. The total cell proteins in the lysates were subjected to SDS-PAGE (GenScript, Product No. M00654), transferred to NC membranes (GE, Product No. 1060002) by blotting, incubated in a blocking buffer (TAKARA, Product No. T7131A) at room temperature for 60 min, and co-incubated overnight at 4° C. with the following primary antibodies: anti-EGFR (#4267S, 1:1000), anti-phoso-EGFR (#3777S, 1:1000), anti-GAPDH (#5174S, 1:10000), anti-Actin (#5125 S, 1:10000) (all purchased from Cell Signaling Technology). The samples were washed three times with TBST at room temperature, each for 10 min, and then incubated for 60 minutes in a blocking buffer containing a secondary antibody (#7074S, 1:10000, purchased from Cell Signaling Technology) at room temperature. The samples were washed three times with TBST at room temperature, each for 10 min. Chemiluminescent substrates were added, and an Azure c300 system was used for imaging.

human EGFR-DTC = test: EGFR protein abundance assay (Western blotting), EGFR-DTC; type: cell-based; conditions: Ba/F3 cells expressing human EGFR-DTC, 24 h, Western blot
Method: as §5

human EGFR-LTC = molecular target: T2, human EGFR-LTC (Homo sapiens, UniProt P00533, C797S/L858R/T790M); test: EGFR protein abundance assay (Western blotting), EGFR-LTC; type: cell-based; conditions: 24 h, Western blot; for DC50: Ba/F3 cells expressing human EGFR-LTC; for Dmax: BaF3, Ba/F3 cells expressing human EGFR-LTC
T2 construct: expressed in transfected cells
T2 sequence (P00533 25-1210 T790M/C797S/L858R): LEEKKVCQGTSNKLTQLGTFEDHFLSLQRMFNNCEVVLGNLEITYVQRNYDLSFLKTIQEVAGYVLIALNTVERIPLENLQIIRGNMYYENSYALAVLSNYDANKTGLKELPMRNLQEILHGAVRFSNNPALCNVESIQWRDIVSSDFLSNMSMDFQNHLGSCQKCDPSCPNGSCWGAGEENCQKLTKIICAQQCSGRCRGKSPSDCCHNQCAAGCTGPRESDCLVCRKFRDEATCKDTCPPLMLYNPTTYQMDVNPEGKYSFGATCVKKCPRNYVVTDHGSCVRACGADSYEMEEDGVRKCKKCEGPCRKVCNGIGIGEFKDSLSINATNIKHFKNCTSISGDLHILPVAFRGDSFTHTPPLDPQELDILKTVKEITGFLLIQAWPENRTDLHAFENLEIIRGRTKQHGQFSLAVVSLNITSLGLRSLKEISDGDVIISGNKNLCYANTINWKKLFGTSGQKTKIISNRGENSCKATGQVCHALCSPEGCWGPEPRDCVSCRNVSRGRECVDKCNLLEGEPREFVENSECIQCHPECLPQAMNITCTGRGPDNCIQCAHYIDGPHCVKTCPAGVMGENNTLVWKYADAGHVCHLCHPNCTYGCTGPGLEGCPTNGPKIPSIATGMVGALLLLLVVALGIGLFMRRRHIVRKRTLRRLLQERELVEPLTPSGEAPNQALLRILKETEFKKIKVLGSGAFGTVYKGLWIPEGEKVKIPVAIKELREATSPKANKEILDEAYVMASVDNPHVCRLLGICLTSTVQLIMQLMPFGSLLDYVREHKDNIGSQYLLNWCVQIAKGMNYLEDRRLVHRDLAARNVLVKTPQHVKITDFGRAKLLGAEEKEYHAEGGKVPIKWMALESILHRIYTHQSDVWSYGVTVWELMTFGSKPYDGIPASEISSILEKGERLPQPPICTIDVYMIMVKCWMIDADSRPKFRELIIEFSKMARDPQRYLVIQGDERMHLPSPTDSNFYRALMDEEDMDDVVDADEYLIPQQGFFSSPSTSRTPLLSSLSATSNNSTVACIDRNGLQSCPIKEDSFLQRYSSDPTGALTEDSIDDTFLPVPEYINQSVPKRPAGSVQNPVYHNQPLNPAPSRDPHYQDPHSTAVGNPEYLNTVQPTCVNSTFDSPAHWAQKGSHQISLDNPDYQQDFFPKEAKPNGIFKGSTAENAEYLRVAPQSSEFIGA
Method: as §5

Row | Structure (SMILES) | IC50 (A431; Table 5) [nM] | IC50 ([1]; Table 5, 72 h) [nM] | GI50 (BaF3 (EGFR L858R/C797S)) [nM] | GI50 (BaF3 (EGFR Del19)) [nM] | IC50 (LT) [nM] | IC50 (DT) [nM] | IC50 ([2]; Table 5, 72 h) [nM] | IC50 (BaF3 (EGFR Del19/C797S)) [nM] | IC50 (BaF3 (EGFR WT); Table 5, 10 ng/ml EGF) [nM] | GI50 (BaF3 (EGFR L858R)) [nM] | IC50 (BaF3 patent) [nM] | IC50 (A431; Table 6) [nM] | IC50 ([1]; Table 6, 72 h) [nM] | IC50 ([2]; Table 6, 72 h) [nM] | IC50 (BaF3 (EGFR WT); Table 6, 10 ng/ml EGF) [nM] | other results
1 | CCc1cc(Nc2ncc(Cl)c(Nc3ccccc3P(C)(C)=O)n2)c(OC)cc1N1CCC(N2CCN(CCCCCc3ccc4c(c3F)CN(C3CCC(=O)NC3=O)C4=O)CC2)CC1 (stereo not drawn) [Example E20] | 1270 | 54.3 | 19.4 | 1.7 | 10 | 7 | 5.6 | 2.7 | > 4000 | 5.2 | > 4000 | – | – | – | – | –
2 | CCc1cc(Nc2ncc(Br)c(Nc3ccc4c(c3P(C)(C)=O)OCCO4)n2)c(OC)cc1N1CCC2(CCN(CCCC#Cc3cccc4c3CN(C3CCC(=O)NC3=O)C4=O)CC2)CC1 (stereo not drawn) [Example E28] | 1390 | 57.9 | – | – | – | – | 11.2 | – | 955 | – | 695 | – | – | – | – | –
3 | CCc1cc(Nc2ncc(Cl)c(Nc3ccccc3P(C)(C)=O)n2)c(OC)cc1N1CCC(N2CC3(CCC(Oc4cccc5c4CN(C4CCC(=O)NC4=O)C5=O)CC3)C2)CC1 (stereo not drawn) [Example E29] | 1020 | 20.9 | – | – | – | – | 14 | – | 1000 | – | 1370 | – | – | – | – | –
4 | CCc1cc(Nc2ncc(Cl)c(Nc3ccccc3P(C)(C)=O)n2)c(OC)cc1N1CCC(N2CCN(CCCCOc3cccc4c3CN(C3CCC(=O)NC3=O)C4=O)CC2)CC1 (stereo not drawn) [Example E30] | 1020 | 11.9 | – | – | – | – | 1.6 | – | 636 | – | 410 | – | – | – | – | –
5 | CCc1cc(Nc2ncc(Cl)c(Nc3ccccc3P(C)(C)=O)n2)c(OC)cc1N1CCC(N2CCN(CCOc3cccc4c3CN(C3CCC(=O)NC3=O)C4=O)CC2)CC1 (stereo not drawn) [Example E95] | – | – | 16.9 | 0.8 | 3.5 | 4 | – | 1.3 | – | 6.6 | – | 1730 | 48.4 | 5.37 | ≥ 1820 | DC50 (human EGFR-DC): 10.1 nM; EGFR-DC Dmax (human EGFR-DC): 98%; DC50 (human EGFR-DTC): 3.02 nM; EGFR-DTC Dmax (human EGFR-DTC): 91%; DC50 (human EGFR-LTC): 2.13 nM; Dmax (human EGFR-LTC): 94%
6 | CCc1cc(Nc2ncc(Cl)c(Nc3ccccc3P(C)(C)=O)n2)c(OC)cc1N1CCC(N2Cc3ccc(Oc4cccc5c4CN(C4CCC(=O)NC4=O)C5=O)cc3C2)CC1 (stereo not drawn) [Example E120] | – | – | 33.9 | 1.8 | 9.3 | 7.8 | – | 3.2 | – | 16.6 | – | ≥ 1560 | 115 | 14.7 | ≥ 2160 | DC50 (human EGFR-DTC): 7.17 nM; EGFR-DTC Dmax (human EGFR-DTC): 86%; DC50 (human EGFR-LTC): 13.1 nM; Dmax (human EGFR-LTC): 85%
7 | CCc1cc(Nc2ncc(-c3cnn(C)c3)c(Nc3ccccc3P(C)(C)=O)n2)c(OC)cc1N1CCC(N2CCN(CCOc3cccc4c3CN(C3CCC(=O)NC3=O)C4=O)CC2)CC1 (stereo not drawn) [Example E158] | – | – | 1.3 | 0.2 | 69.1 | 15.3 | – | 0.1 | – | 0.6 | – | ≥ 1200 | 2760 | 33 | 730 | –
